Here are results for 18 molecules from patent US11459327B1, “Cycloalkyl and hetero-cycloalkyl inhibitors, preparation methods therefor, and use thereof” (Suzhou Zelgen Biopharmaceuticals Co., Ltd., priority 2019, dated 2022).

Data set [1] is described as follows: Pharmacokinetics test evaluation in rats, plasma concentration by LC/MS/MS. It counts as in vivo. The settings on record: male SD rats, 15 mg/kg by gavage; for T1/2 / Tmax / AUC / Cmax: n = 4, mean; for AUC / Cmax: rat, plasma, po. The method, then: Male SD rats, with a body weight of about 220 g, were given 15 mg/kg solution of the compound of the invention or the control compound by gavage after overnight fasting [10% […] (captisol) and 50 mM sodium citrate (pH 5) as vehicle]. Blood samples were collected at 0.5, 1.0, 2.0, 4.0, 6.0, 8.0, 12.0 and 24 hours after the compound was administrated, and the concentrations of the compound or the control compound in plasma were determined by LC/MS/MS.
The plasma concentration-time curves of Examples 13 and 14 and control compounds were shown in FIG. 1, and the pharmacokinetics parameters were shown in Table 2: […]

In data set [2] the test system is NCI-H358(KRAS^G12C mutation) cells. Nature of the data set: Cell assay of antiproliferative activity (Celltiter-Glo, 5 days) against NCI-H358 cells. It is filed as cell-based. As to conditions: Homo sapiens, NCI-H358, 120 h, 5 days incubation. The essentials:
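Cells plated overnight, then given a 10-point compound series (stock dilutions 50 μM to 0.003 μM, 100 nL added per well) and grown 5 days. Luminescence read after 10 min shaking at room temperature. IC50 from curve fitting.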
(ATP-based viability assays read luminescence as a measure of living cells.)

Data set [3] has as its system A549(KRAS^G12S mutation) cells. Kind of data set: Cell assay of antiproliferative activity (Celltiter-Glo, 5 days) against A549 cells. It is filed as cell-based. As to conditions: Homo sapiens, 120 h, 5 days incubation. The method, then: Cell assay of antiproliferative activity of compounds against NCI-H358(KRAS^G12C mutation) and A549(KRAS^G12S mutation) cells.
40 μl phosphate buffer was added to the outer wells of the 384 microplate, and 40 μl cell suspension to be tested was added to the other wells. Then the microplate was incubated in a carbon dioxide incubator overnight.
The compounds to be tested were gradiently diluted, each compound was performed 10 concentration gradients (diluted from 50 μM to 0.003 μM) and added 100 nL to the corresponding wells in the microplate. After addition, 40 μl of phosphate buffer was added to each well in rows A and P and columns 1 and 24, and then the microplate was incubated in a carbon dioxide incubator for 5 days.
20 μL of Promega Celltiter-Glo reagent was added to each well of the microplate, and then the luminescence signal was stabilized by oscillating at room temperature for 10 min. Then PekinElmer Envision multi-label analyzer was used to read.
Finally, GraphPad Prism software was used to calculate the IC50 value of the compound and the fitting curve was drawn.
Anti-proliferative activity of the compounds of the present invention against NCI-H358(KRAS^G12C mutation) and A549(KRAS^G12S mutation) cells were shown in Table 1.

pIC50: −log10 of the molar value.

One may read the Tmax as the time from dosing to the highest level. The term AUC denotes the area under the concentration-time curve, a measure of exposure. Low values mean less exposure, high ones more exposure. For orientation: Cmax means the maximum level reached in the sampled fluid or tissue. For `C=C(F)C(=O)N1CCN(c2nc(OC[C@@H]3CCCN3C)nc3c2CCN(c2cccc4cccc(Cl)c24)C3)CC1CC#N` (stereo partly drawn) [Control compound, reference compound], in data set [1], the T1/2 was 2.47 h, the Tmax is 4.0 h, the AUC came to 830 ng·h/mL and the highest level (Cmax) was 123 ng/mL.

As a reminder, the pIC50 is the negative decadic logarithm of the IC50, by convention in mol/L. Read a high pIC50 as a small IC50. For the molecule `C=C(F)C(=O)N1CCN(c2nc(OCC3(CN(C)C)CC3)nc3c2CCN(c2cccc4cccc(Cl)c24)C3)CC1CC#N` (stereo not drawn) [Example 13], in data set [1], the T1/2 turned out to be 2.33 h, the Tmax was determined as 4.0 h, the AUC came to 1400 ng·h/mL and the Cmax worked out at 163 ng/mL. In addition, in data set [1] (conclusion in words), the bioavailability entry is given as “excellent bioavailability”. In addition, the “metabolic properties in rats compared with the control compound” value in data set [1] (higher Cmax and higher plasma exposure AUC) is “better metabolic properties in rats”. For the same molecule, in data set [2], the pIC50 was 7.26. In addition, the pIC50 in data set [3] was 5.22.

As to `C=C(F)C(=O)N1CCN(c2nc(OCCN(C)C3CCC3)nc3c2CCN(c2cccc4ccc(F)c(Cl)c24)C3)CC1CC#N` (stereo not drawn) [Example 14, 2-(4-(7-(8-chloro-7-fluoronaphthalen-1-yl)-2-(2-(cyclobutyl(methyl)amino)ethoxy)-5,6,7,8-tetrahydropyrido[3,4-d]pyrimidin-4-yl)-1-(2-fluoroacroloyl)piperazin-2-yl) acetonitrile], in data set [1], the T1/2 came to 1.69 h, the time of peak concentration (Tmax) was 1.25 h, the AUC turned out to be 392 ng·h/mL and the Cmax came out at 85.1 ng/mL. Also, the pIC50 in data set [2] is 7.05. For the same molecule, the pIC50 in data set [3] is 5.21.

`C=CC(=O)N1CCN(c2nc(OCCN(C)C3CCC3)nc3c2CCN(c2cccc4ccc(F)c(C)c24)C3)CC1CC#N` (stereo not drawn) [Example 21, 2-(1-acroloyl-4-(2-(2-(cyclobutyl(methyl)amino)ethyoxyl)-7-(7-fluoro-8-methylnaphthalen-1-yl)-5,6,7,8-tetrahydropyrido[3,4-d]pyrimidin-4-yl)piperazin-2-yl) acetonitrile]: the figures for the pIC50 in data set [2] and in data set [3] were 7.57 and 5.11, respectively.

`C=C(F)C(=O)N1CCN(c2nc(OCCN(C)C3CCC3)nc3c2CCN(c2cccc4ccc(F)c(C)c24)C3)CC1CC#N` (stereo not drawn) [Example 22, 2-(4-(2-(2-(cyclobutyl(methyl)amino)ethyoxyl)-7-(7-fluoro-8-methylnaphthalen-1-yl)-5,6,7,8-tetrahydropyrido[3,4-d]pyrimidin-4-yl)-1-(2-fluoroacroloyl)piperazin-2-yl) acetonitrile]: the pIC50 in data set [2] is 7.04; in data set [3], 5.66.

Take `C=CC(=O)N1CCN(c2nc(OCCN(C)C3CC3)nc3c2CCN(c2cccc4cccc(C)c24)C3)CC1CC#N` (stereo not drawn) [Example 70, 2-(1-acroloyl-4-(2-(2-((cyclopropyl)(methyl)amino)ethoxy)-7-(8-methylnaphthalen-1-yl)-5,6,7,8-tetrahydropyrido[3,4-d]pyrimidin-4-yl)piperazin-2-yl) acetonitrile]: the figures for the pIC50 in data set [2] and in data set [3] were 6.77 and 4.94, respectively.

Consider `C=CC(=O)N1CCN(c2nc(OC[C@H](C)N(C)C3CC3)nc3c2CCN(c2cccc4cccc(C)c24)C3)CC1CC#N` (stereo partly drawn) [Example 71, 2-(1-acroloyl-4-(2-((S)-2-(cyclopropyl(methyl)amino)propoxy)-7-(8-methylnaphthalen-1-yl)-5,6,7,8-tetrahydropyrido[3,4-d]pyrimidin-4-yl)piperazin-2-yl) acetonitrile], for which the pIC50 in data set [2] is 6.82; in data set [3], 4.94.

In the case of `C=CC(=O)N1CCN(c2nc(OC[C@@H](C)N(C)C3CC3)nc3c2CCN(c2cccc4cccc(C)c24)C3)CC1CC#N` (stereo partly drawn) [Example 72, 2-(1-acroloyl-4-(2-((R)-2-(cyclopropyl(methyl)amino)propoxy)-7-(8-methylnaphthalen-1-yl)-5,6,7,8-tetrahydropyrido[3,4-d]pyrimidin-4-yl)piperazin-2-yl) acetonitrile], the pIC50 in data set [2] was 6.74; in data set [3] it was 4.97.

As for `C=CC(=O)N1CCN(c2nc(OCCN(C)CC3CC3)nc3c2CCN(c2cccc4cccc(C)c24)C3)CC1CC#N` (stereo not drawn) [Example 73], the values for the pIC50 in data set [2] and in data set [3] were 7.22 and 5.43, respectively.

Regarding `C=CC(=O)N1CCN(c2nc(OC[C@H](C)N(C)CC3CC3)nc3c2CCN(c2cccc4cccc(C)c24)C3)CC1CC#N` (stereo partly drawn) [Example 74], the pIC50 in data set [2] is 7.10; in data set [3], 5.59.

Take `C=CC(=O)N1CCN(c2nc(OC[C@@H](C)N(C)CC3CC3)nc3c2CCN(c2cccc4cccc(C)c24)C3)CC1CC#N` (stereo partly drawn) [Example 75]: the values for the pIC50 in data set [2] and in data set [3] were 7.05 and 5.55, respectively.

With `C=CC(=O)N1CCN(c2nc(O[C@@H](C)CN(C)CC3CC3)nc3c2CCN(c2cccc4cccc(C)c24)C3)CC1CC#N` (stereo partly drawn) [Example 76, 2-(1-acroloyl-4-(2-(((S)-1-((cyclopropylmethyl)(methyl)amino)propan-2-yl)oxy)-7-(8-methylnaphthalen-1-yl)-5,6,7,8-tetrahydropyrido[3,4-d]pyrimidin-4-yl)piperazin-2-yl) acetonitrile], the pIC50 is 6.07 in data set [2] and 5.46 in data set [3].

As to `C=CC(=O)N1CCN(c2nc(O[C@H](C)CN(C)CC3CC3)nc3c2CCN(c2cccc4cccc(C)c24)C3)CC1CC#N` (stereo partly drawn) [Example 77, 2-(1-acroloyl-4-(2-(((R)-1-((cyclopropylmethyl)(methyl)amino)propan-2-yl)oxy)-7-(8-methylnaphthalen-1-yl)-5,6,7,8-tetrahydropyrido[3,4-d]pyrimidin-4-yl)piperazin-2-yl) acetonitrile], the pIC50 in data set [2] is 5.74; in data set [3], 5.57.

For the molecule `C=CC(=O)N1CCN(c2nc(OCCN(C)[C@@H](C)C3CC3)nc3c2CCN(c2cccc4cccc(C)c24)C3)CC1CC#N` (stereo partly drawn) [Example 78], the pIC50 in data set [2] was 7.30; in data set [3] it was 5.55.

For `C=CC(=O)N1CCN(c2nc(OCCN(C)[C@H](C)C3CC3)nc3c2CCN(c2cccc4cccc(C)c24)C3)CC1CC#N` (stereo partly drawn) [Example 79, 2-(1-acroloyl-4-(2-(2-(((R)-1-cyclopropylmethyl)(methyl)amino)ethoxy)-7-(8-methylnaphthalen-1-yl)-5,6,7,8-tetrahydropyrido[3,4-d]pyrimidin-4-yl)piperazin-2-yl) acetonitrile], the pIC50 in data set [2] was 7.40; in data set [3] it was 5.51.

On to `C=CC(=O)N1CCN(c2nc(OCCN(C)C3CCC3)nc3c2CCN(c2cccc4cccc(C)c24)C3)CC1CC#N` (stereo not drawn) [Example 81, 2-(1-acroloyl-4-(2-(2-((cyclobutyl)(methyl)amino)ethoxy)-7-(8-methylnaphthalen-1-yl)-5,6,7,8-tetrahydropyrido[3,4-d]pyrimidin-4-yl)piperazin-2-yl) acetonitrile], for which the pIC50 was 7.40 in data set [2] and 5.12 in data set [3].

On to `C=CC(=O)N1CCN(c2nc(OCCN(C)CC3CCC3)nc3c2CCN(c2cccc4cccc(C)c24)C3)CC1CC#N` (stereo not drawn) [Example 82, 2-(1-acroloyl-4-(2-(2-((cyclobutylmethyl)(methyl)amino)ethoxy)-7-(8-methylnaphthalen-1-yl)-5,6,7,8-tetrahydropyrido[3,4-d]pyrimidin-4-yl)piperazin-2-yl) acetonitrile], for which the values for the negative-log IC50 (pIC50) in data set [2] and in data set [3] were 6.80 and 5.18, respectively.

Turning to `C=CC(=O)N1CCN(c2nc(OCCOC3CC3)nc3c2CCN(c2cccc4cccc(C)c24)C3)CC1CC#N` (stereo not drawn) [Example 93, 2-(1-acroloyl-4-(2-(2-cyclopropoxyethyoxy)-7-(8-methylnaphthalen-1-yl)-5,6,7,8-tetrahydropyrido[3,4-d]pyrimidin-4-yl)piperazin-2-yl) acetonitrile], the pIC50 in data set [2] is 6.51; in data set [3], 5.11.
